This passage reports inhibition and IC50 results from PMC4076210, “Discovery of Novel AKT Inhibitors with Enhanced Anti-Tumor Effects in Combination with the MEK Inhibitor” (PLoS ONE, 2014).

Assay type in all cases: biochemical
One experiment has as its target T1, JNK1α1(h) (Homo sapiens, UniProt P45983).
T1 construct: purchased Millipore KinaseProfiler
Nature of the experiment: Kinase panel.

The target in the next experiment is T2, ROCK-I(h) (Homo sapiens, UniProt Q13464).
T2 construct: purchased Millipore KinaseProfiler
T2 sequence (Q13464 whole entry): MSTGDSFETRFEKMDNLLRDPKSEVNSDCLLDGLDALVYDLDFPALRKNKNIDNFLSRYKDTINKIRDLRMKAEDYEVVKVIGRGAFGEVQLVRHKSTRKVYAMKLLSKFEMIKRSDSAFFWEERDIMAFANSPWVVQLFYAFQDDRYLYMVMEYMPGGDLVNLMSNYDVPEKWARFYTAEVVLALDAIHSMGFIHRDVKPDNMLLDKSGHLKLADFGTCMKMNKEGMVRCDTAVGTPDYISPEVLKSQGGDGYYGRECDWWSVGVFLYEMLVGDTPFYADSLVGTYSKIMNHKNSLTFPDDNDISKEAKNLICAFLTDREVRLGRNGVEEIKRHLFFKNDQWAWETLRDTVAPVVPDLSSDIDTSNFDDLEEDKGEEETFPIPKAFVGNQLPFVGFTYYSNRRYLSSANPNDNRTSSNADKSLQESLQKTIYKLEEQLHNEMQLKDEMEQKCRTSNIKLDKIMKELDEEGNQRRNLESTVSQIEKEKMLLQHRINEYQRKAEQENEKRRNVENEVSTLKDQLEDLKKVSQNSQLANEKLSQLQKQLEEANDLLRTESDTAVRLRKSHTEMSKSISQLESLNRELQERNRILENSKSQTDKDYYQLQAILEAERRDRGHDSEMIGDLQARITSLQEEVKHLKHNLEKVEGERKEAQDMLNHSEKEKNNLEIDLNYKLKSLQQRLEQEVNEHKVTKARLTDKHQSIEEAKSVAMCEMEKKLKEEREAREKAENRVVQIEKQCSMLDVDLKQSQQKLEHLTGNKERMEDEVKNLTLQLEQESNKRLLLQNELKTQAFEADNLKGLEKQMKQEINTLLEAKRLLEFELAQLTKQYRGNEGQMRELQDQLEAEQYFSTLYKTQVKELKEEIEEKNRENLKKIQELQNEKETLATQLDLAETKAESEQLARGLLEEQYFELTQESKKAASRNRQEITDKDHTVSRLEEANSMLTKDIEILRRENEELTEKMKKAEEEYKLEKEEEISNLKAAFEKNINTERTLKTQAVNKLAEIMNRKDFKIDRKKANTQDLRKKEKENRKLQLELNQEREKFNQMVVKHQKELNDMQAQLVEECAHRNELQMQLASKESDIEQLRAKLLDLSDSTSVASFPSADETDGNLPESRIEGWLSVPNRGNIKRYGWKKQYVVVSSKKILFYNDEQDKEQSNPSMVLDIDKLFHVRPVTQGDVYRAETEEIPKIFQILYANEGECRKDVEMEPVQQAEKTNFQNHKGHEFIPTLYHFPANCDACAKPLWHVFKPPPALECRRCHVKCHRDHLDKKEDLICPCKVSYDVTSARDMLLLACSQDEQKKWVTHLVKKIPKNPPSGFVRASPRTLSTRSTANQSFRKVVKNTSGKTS
Nature of the experiment: Kinase panel.

The next experiment addresses PKA (Homo sapiens, UniProt P17612). Nature of the experiment: Kinase IC50 assay.
The target of the next experiment is T3, PAK3(h) (Homo sapiens, UniProt O75914).
T3 construct: purchased Millipore KinaseProfiler
Nature of the experiment: Kinase panel.

The next experiment has as its target T4, TAO3(h) (Homo sapiens, UniProt Q9H2K8).
T4 construct: purchased Millipore KinaseProfiler
T4 sequence (Q9H2K8 1-898): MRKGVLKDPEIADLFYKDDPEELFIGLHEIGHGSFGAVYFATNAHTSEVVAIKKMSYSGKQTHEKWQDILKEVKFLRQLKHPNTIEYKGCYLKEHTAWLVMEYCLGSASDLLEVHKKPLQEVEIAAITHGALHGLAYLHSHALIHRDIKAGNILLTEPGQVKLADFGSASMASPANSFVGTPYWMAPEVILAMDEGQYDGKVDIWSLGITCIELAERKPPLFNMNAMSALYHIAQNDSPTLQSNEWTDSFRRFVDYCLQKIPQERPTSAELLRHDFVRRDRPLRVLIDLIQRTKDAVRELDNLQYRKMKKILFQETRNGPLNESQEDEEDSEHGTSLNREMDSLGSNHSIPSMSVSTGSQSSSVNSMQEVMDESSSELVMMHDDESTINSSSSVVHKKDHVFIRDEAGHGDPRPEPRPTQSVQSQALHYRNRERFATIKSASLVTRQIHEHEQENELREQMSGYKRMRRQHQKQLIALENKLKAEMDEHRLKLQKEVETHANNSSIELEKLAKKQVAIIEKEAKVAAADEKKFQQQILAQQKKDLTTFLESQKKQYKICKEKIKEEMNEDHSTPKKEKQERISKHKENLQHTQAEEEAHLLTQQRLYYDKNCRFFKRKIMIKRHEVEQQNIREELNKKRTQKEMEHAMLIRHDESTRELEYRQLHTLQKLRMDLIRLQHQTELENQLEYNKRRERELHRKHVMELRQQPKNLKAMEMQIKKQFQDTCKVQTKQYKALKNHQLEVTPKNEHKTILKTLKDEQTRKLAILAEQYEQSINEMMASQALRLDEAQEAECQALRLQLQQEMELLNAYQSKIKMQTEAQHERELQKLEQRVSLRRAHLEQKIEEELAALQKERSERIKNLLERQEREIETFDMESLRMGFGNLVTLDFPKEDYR
Nature of the experiment: Kinase panel.

Another experiment deals with T5, Fes(h) (Homo sapiens, UniProt P07332).
T5 construct: purchased Millipore KinaseProfiler
T5 sequence (P07332 whole entry): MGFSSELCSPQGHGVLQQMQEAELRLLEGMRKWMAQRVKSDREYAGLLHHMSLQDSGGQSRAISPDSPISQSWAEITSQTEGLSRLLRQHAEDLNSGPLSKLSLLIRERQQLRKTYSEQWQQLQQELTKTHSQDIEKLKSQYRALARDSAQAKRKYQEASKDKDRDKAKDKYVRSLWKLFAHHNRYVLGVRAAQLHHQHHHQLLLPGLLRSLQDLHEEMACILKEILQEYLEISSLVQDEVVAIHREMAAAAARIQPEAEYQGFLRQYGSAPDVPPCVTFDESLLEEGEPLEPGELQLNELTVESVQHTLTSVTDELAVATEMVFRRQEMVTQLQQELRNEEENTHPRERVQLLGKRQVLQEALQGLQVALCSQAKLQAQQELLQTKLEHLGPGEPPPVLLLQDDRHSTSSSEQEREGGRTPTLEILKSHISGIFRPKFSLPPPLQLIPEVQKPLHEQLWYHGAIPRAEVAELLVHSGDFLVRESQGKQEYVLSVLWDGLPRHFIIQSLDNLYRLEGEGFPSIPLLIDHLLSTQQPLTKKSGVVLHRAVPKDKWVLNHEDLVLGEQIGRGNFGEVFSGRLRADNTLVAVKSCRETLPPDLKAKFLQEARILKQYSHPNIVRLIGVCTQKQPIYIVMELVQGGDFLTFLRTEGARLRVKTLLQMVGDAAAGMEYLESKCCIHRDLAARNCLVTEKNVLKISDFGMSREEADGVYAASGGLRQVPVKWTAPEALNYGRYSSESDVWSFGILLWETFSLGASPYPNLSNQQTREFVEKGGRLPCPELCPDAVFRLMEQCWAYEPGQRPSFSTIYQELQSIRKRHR
The experiment in a line: Kinase panel.

For a further experiment, the target named is T6, EGFR(L858R)(h) (Homo sapiens, UniProt P00533, L858R).
T6 construct: purchased Millipore KinaseProfiler
T6 sequence (P00533 25-1210 L858R): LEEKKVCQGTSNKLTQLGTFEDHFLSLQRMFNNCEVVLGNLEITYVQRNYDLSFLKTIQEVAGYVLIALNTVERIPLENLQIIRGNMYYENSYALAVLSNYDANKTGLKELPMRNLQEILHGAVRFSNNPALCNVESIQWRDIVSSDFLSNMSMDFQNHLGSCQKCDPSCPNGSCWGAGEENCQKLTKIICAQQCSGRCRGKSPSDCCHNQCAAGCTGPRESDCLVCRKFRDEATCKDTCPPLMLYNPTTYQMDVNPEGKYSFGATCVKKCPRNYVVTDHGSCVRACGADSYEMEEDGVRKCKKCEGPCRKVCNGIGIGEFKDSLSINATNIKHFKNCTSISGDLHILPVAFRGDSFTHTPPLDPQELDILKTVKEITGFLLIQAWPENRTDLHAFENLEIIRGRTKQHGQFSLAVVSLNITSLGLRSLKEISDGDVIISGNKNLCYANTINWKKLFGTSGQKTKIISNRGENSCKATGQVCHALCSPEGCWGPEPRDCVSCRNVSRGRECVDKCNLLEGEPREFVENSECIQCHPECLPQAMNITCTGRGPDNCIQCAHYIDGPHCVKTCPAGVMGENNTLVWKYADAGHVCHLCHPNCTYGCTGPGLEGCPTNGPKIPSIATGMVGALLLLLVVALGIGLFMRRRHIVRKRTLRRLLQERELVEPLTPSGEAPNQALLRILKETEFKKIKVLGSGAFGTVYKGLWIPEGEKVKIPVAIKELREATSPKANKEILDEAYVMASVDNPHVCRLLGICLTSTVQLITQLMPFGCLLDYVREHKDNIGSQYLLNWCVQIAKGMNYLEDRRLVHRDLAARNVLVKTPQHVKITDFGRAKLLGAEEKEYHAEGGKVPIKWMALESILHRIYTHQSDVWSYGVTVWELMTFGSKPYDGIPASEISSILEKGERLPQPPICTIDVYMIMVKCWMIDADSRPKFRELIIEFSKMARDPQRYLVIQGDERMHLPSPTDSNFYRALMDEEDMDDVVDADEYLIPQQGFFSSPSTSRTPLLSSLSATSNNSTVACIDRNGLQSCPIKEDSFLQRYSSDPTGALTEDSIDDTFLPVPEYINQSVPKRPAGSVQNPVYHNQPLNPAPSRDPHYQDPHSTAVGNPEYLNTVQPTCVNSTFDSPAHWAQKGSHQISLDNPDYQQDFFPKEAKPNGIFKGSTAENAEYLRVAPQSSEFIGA
The experiment in a line: Kinase panel.

For a further experiment, the target named is T7, Pim-2(h) (Homo sapiens, UniProt Q9P1W9).
T7 construct: purchased Millipore KinaseProfiler
T7 sequence (Q9P1W9 whole entry): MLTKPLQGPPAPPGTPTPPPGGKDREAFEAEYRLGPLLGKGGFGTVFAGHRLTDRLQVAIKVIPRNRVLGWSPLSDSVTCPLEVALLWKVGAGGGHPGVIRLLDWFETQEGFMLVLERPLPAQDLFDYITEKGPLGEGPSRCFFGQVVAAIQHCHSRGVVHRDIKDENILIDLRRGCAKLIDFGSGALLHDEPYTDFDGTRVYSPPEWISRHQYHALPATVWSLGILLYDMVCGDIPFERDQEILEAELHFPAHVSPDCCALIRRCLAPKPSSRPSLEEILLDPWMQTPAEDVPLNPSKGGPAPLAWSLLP
The experiment in a line: Kinase panel.

The next experiment has as its target T8, Txk(h) (Homo sapiens, UniProt P42681).
T8 construct: purchased Millipore KinaseProfiler
T8 sequence (P42681 1-527): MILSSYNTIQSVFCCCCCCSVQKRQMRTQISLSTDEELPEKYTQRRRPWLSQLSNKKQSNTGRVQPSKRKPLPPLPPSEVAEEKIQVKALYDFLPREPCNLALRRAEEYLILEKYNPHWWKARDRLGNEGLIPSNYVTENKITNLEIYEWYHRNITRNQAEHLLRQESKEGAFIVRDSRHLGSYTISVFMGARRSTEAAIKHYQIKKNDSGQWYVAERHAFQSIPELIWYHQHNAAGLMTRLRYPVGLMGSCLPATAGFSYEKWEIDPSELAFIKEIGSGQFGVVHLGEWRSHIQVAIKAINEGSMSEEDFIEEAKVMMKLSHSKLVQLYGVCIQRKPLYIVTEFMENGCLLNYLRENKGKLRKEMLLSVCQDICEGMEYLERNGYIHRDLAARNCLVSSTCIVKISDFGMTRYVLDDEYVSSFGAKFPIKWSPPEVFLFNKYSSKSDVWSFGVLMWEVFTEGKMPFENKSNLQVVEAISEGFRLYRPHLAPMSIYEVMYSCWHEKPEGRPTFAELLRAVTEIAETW
Nature of the experiment: Kinase panel.

For the next experiment, the target named is T9, TSSK2(h) (Homo sapiens, UniProt Q96PF2).
T9 construct: purchased Millipore KinaseProfiler
T9 sequence (Q96PF2 1-358): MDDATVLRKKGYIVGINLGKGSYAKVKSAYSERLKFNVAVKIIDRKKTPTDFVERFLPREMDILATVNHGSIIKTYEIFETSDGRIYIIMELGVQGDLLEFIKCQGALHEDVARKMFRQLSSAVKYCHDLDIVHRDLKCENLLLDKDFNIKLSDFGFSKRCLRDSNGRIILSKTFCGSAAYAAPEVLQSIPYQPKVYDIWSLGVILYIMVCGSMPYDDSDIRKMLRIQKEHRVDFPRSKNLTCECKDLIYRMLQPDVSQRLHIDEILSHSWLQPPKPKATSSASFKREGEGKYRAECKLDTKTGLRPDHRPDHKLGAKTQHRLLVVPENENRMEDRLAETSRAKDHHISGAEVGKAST
The experiment in a line: Kinase panel.

The target of a further experiment is T10, PAK4(h) (Homo sapiens, UniProt O96013).
T10 construct: purchased Millipore KinaseProfiler
T10 sequence (O96013 whole entry): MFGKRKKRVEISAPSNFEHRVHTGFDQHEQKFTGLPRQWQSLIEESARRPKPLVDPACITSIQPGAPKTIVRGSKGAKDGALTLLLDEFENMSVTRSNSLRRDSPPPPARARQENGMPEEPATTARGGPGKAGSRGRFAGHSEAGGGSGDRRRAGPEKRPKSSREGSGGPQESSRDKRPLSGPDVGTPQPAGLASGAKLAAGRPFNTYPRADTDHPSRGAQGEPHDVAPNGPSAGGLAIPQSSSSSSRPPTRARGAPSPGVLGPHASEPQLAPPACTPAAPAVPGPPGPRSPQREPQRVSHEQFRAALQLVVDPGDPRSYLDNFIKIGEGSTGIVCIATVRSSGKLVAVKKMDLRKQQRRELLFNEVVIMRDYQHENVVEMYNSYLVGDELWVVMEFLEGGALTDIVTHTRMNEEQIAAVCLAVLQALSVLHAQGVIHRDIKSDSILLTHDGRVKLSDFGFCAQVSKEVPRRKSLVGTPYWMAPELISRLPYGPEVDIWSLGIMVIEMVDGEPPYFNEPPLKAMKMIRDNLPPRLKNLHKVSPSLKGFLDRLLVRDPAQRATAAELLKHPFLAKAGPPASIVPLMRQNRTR
The experiment in a line: Kinase panel.

Another experiment concerns the target T11, KDR(h) (Homo sapiens, UniProt P35968).
T11 construct: purchased Millipore KinaseProfiler
The experiment in a line: Kinase panel.

Molecules are shown by their SMILES. Where two headings read alike, the source gives them in different places.

T1 sequence (P45983 1-384 isoform P45983-2): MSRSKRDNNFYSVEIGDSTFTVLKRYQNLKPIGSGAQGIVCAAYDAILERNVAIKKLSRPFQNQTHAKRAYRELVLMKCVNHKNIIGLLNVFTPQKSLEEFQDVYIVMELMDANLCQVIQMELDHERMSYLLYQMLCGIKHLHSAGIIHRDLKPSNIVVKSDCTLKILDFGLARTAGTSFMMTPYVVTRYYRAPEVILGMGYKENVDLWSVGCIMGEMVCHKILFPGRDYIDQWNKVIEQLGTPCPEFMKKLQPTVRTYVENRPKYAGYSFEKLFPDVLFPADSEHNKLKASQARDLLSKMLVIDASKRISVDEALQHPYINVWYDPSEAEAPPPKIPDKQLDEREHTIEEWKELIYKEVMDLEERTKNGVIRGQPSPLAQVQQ

In the case of `Cn1ncc(Cl)c1-c1cc(C(=O)N[C@H](CN)Cc2cccc(F)c2)sc1Cl` [GSK2110183], the inhibition at 0.5 µM against JNK1α1(h) is -2%; against ROCK-I(h), 12%; against PAK3(h) it was -2%; on TAO3(h) it was -2%; against Fes(h), 9%; against EGFR(L858R)(h) it was 3%. Besides, the inhibition at 0.5 µM on Pim-2(h) is 5%; at Txk(h) it was -9%; on TSSK2(h), 4%; against PAK4(h) it was -13%; against KDR(h), 13%. Besides, the inhibition at 10 µM at JNK1α1(h) worked out at 13%; on ROCK-I(h), 77%; against PAK3(h), 62%; against TAO3(h) it was 24%; on Fes(h) it was 48%; at EGFR(L858R)(h), 15%. The inhibition at 10 µM at Pim-2(h) was determined as 35%; on Txk(h) it was 15%; against TSSK2(h), 44%; at PAK4(h), 17%; against KDR(h), 7%. For the same compound, inhibition on PKA was half-maximal at 1.3 nM (IC50).
As to `Cn1ncc(Cl)c1-c1cc(C(=O)N[C@H](CN)Cc2ccc(F)c(F)c2)oc1Cl` [GSK2141795], the inhibition at 0.5 µM on JNK1α1(h) (0.5 µM, read-out: % Inhibition) was -9%; at ROCK-I(h) (0.5 µM, read-out: % Inhibition) it was 18%; at PAK3(h) (0.5 µM, read-out: % Inhibition) it was 6%; on TAO3(h) (0.5 µM, read-out: % Inhibition) it was -16%; on Fes(h) (0.5 µM, read-out: % Inhibition), 0%; on EGFR(L858R)(h) (0.5 µM, read-out: % Inhibition), 3%. For the same compound, the inhibition at 0.5 µM on Pim-2(h) (0.5 µM, read-out: % Inhibition) was -7%; on Txk(h) (0.5 µM, read-out: % Inhibition), 11%; at TSSK2(h) (0.5 µM, read-out: % Inhibition), 7%; at PAK4(h) (0.5 µM, read-out: % Inhibition) it was 4%; on KDR(h) (0.5 µM, read-out: % Inhibition), -6%. Also, the inhibition at 10 µM is -5% at JNK1α1(h) (10 µM, read-out: % Inhibition); 71% on ROCK-I(h) (10 µM, read-out: % Inhibition); 28% on PAK3(h) (10 µM, read-out: % Inhibition); -4% on TAO3(h) (10 µM, read-out: % Inhibition); 80% on Fes(h) (10 µM, read-out: % Inhibition); 24% on EGFR(L858R)(h) (10 µM, read-out: % Inhibition). The inhibition at 10 µM at Pim-2(h) (10 µM, read-out: % Inhibition) is 9%; on Txk(h) (10 µM, read-out: % Inhibition) it was 30%; at TSSK2(h) (10 µM, read-out: % Inhibition) it was 53%; at PAK4(h) (10 µM, read-out: % Inhibition), 39%; at KDR(h) (10 µM, read-out: % Inhibition), -3%. The compound also showed an IC50 against PKA of 2 nM.
